The text below walks through data of the NIST ThermoML archive (doi:10.1021/je700020t).

For the series the following is noted: 101.33 kPa, Liquid.

Numbers after ± are expanded uncertainties.

For orientation: mass density means mass per unit of volume. Consider `CCCCI` [1-iodobutane], for which the mass density reads like this: (253.15 K) 1670.9 ± 3.3 kg/m3; (263.15 K) 1655.2 ± 3.2 kg/m3; (273.15 K) 1639.1 ± 3.1 kg/m3; (283.15 K) 1623.7 ± 3 kg/m3; (293.15 K) 1607.6 ± 2.9 kg/m3; (298.15 K) 1599.8 ± 2.9 kg/m3. The mass density amounted to 1558.7 ± 2.9 kg/m3 (323.15 K), 1525.7 ± 2.9 kg/m3 (343.15 K), 1492 ± 2.9 kg/m3 (363.15 K) and 1457.2 ± 2.9 kg/m3 (383.15 K).

As for `CCCI` [1-iodopropane], the mass density is, setting by setting: (253.15 K) 1820.9 ± 1.8 kg/m3; (263.15 K) 1802.5 ± 1.7 kg/m3; (273.15 K) 1784.5 ± 1.7 kg/m3; (283.15 K) 1765.9 ± 1.6 kg/m3; (293.15 K) 1747.8 ± 1.5 kg/m3; (324.15 K) 1688.3 ± 1.6 kg/m3. In addition, the mass density amounted to 1652.2 ± 1.6 kg/m3 (343.15 K) and 1622.3 ± 1.7 kg/m3 (358.15 K).
